Test results from patent publication US11220503B2, “Phthalazine derivatives, preparation method, pharmaceutical composition and usage thereof” (Shanghai SIMR Biotech Co., Ltd., priority 2015, dated 2022).

Legend:
[1] = target: T1, α5β3γ2 receptor (Homo sapiens, UniProt P18507+P31644); test: Supplementary data for cell level screening: new electrophysiology method (I. Lecker et al); type: cell-based; details: for Inverse agonism efficacy(%): new method, CsCl intracellular solution, GABA 0.1˜0.3 CM, other procedures as previous method; for inverse agonism efficacy of the compound/α5IA inverse agonism efficacy: ratio to the α5IA reference run above in the table (r4 or r29)
T1 construct: expressed in transfected cells; host or cells: HEK-293 (stably transfected)

[2] = Compound tissue distribution (brain/plasma); type: in vivo; details: brain and plasma, po; rat, 10 mg/kg p.o. in 50% PEG400, one hour; read-out: Brain/Plasma ratio
Protocol: The distribution ratio of blood brain tissue was calculated by comparing the concentration of compound in rat plasma and brain tissue. The experimental animals were divided into two groups, the plasma group and the brain group, each with three. To measure brain to plasma ratio, rats were administed compounds in 50% PEG400 p.o. at a dose of 10 mg compound to be tested/kg. One hour later, plasma and brain samples were taken. Concentrations of compounds in brain and plasma were detected using LC-MS/MS-AJ (Triple Quad 5500) assay and analyzed using Phoenix WinNonlin.
We also measured the brain to plasma ratio of compound #24. The experimental animals were divided into two groups, the plasma group and the brain group, each with three. To measure the brain to plasma ratio, Rats were administered compounds (1 mg/kg in 5% DMSO+70% PEG400+25% H2O p.o.). One hour later, plasma and brain samples were taken. Concentrations of compounds in brain and plasma were detected using a LC-MS/MS-AJ (Triple Quad 5500) assay and analyzed using Phoenix WinNonlin.

T1 sequence (P31644 32-462): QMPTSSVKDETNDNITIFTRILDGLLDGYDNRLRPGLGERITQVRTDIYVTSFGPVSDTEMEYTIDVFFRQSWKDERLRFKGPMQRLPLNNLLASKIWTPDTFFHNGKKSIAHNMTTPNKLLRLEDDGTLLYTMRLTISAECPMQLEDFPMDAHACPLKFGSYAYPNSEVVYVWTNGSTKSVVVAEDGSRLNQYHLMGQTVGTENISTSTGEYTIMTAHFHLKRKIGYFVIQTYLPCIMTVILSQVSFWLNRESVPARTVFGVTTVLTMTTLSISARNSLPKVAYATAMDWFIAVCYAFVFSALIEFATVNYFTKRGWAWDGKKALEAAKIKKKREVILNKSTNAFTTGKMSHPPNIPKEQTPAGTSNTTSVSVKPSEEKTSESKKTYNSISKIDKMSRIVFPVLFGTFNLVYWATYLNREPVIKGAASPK
T1 sequence (P28472 26-473 isoform P28472-2 partner limits assumed): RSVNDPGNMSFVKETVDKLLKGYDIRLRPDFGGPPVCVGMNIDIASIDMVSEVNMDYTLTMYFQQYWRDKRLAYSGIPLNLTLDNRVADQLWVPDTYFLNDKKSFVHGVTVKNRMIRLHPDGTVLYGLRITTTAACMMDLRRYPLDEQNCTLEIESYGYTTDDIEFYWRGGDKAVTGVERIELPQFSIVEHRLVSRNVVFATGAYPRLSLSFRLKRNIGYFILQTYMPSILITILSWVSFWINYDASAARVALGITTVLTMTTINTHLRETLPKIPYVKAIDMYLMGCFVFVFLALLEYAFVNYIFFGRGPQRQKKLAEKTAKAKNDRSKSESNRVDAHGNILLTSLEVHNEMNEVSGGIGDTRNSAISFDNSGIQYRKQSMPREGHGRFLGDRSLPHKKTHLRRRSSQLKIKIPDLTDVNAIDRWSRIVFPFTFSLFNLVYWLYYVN
T1 sequence (P18507 40-475): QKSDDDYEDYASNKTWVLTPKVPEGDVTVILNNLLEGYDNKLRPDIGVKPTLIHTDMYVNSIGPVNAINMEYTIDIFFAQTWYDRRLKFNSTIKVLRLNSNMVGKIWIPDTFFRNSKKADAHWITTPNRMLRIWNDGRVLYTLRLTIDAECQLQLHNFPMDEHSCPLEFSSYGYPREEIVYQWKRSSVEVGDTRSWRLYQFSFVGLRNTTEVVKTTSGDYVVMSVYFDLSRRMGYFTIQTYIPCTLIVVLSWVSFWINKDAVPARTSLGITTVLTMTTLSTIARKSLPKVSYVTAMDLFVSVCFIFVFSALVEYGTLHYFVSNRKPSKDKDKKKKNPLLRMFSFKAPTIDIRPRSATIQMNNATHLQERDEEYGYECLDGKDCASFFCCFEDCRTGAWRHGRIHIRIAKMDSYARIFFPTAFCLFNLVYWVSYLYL

| SMILES | Inverse agonism efficacy(%) [1] | inverse agonism efficacy of the compound/α5IA inverse agonism efficacy [1] | Kp at 1 h [2] |
| --- | --- | --- | --- |
| CCNC(=O)c1ccc(COc2nn3c(-c4cc(C)on4)nnc3c3ccccc23)nc1 [Compound 07, N-ethyl-6-(((3-(5-methylisoxazol-3-yl)-[1,2,4]triazolo[3,4-a]phthalazin-6-yl)oxy)methyl)nicotinamide] | −21.1667% | 1.219 | < 0.01 |
| COCCNC(=O)c1ccc(COc2nn3c(-c4cc(C)on4)nnc3c3ccccc23)nc1 [Compound 08, N-(2-methoxyethyl)-6-(((3-(5-methylisoxazol-3-yl)-[1,2,4]triazolo[3,4-a]phthalazin-6-yl)oxy)methyl)nicotinamide] | −35.375% | 1.902 | < 0.01 |
